{"source": "ChEMBL document CHEMBL1150554", "about": "“Synthesis and activity of spiroisoindolines as novel noncompetitive NMDA antagonists” (Bioorg Med Chem Lett, 1993)", "note": "The source made the active and inactive calls. No cut-off for these calls is given here."}
{"system": "Mus musculus", "experiment": "Compound was tested at a dose of 0.5-1mg/Kg, ip; produced effects such as body rolling, ataxia and hyperlocomotion", "format": "functional, organism-based", "conditions": "not given"}
{"smiles": "C[C@]12N[C@H](Cc3ccccc31)c1ccccc12.Cl", "note": "[DIZOCILPINE HYDROCHLORIDE]", "Activity": "Active"}
{"system": "Mus musculus", "experiment": "Compound was tested up to a dose of 80mg/Kg, ip; did not produce effects such as body rolling, ataxia and hyperlocomotion", "format": "functional, organism-based", "conditions": "not given"}
{"smiles": "CN1Cc2ccccc2C12CCCc1sccc12.O=C(O)C(=O)O", "note": "(centres undefined)", "Activity": "inactive"}
{"target": "Glutamate NMDA receptor", "experiment": "Inhibition of [3H]-TCP binding to NMDA receptors on rat brain membranes.", "format": "cell membranes, Membrane", "conditions": "not given", "units": {"IC50": "nM"}}
{"smiles": "CCCN1Cc2ccccc2C12CCCc1ccccc12", "note": "(centres undefined)", "IC50": 1600}
{"smiles": "CCCN1Cc2ccccc2C12CCc1ccccc12", "note": "(centres undefined)", "IC50": 440}
{"smiles": "COc1cccc2c1CCC21NCc2ccccc21", "note": "(centres undefined)", "IC50": 5000}
{"smiles": "COc1ccc2c(c1)C1(CCCCc3ccccc31)N(C)C2", "note": "(centres undefined)", "IC50": 2700}
{"smiles": "Oc1ccc2c(c1)C1(CCCc3ccccc31)NC2", "note": "(centres undefined)", "IC50": 240}
{"smiles": "CN1Cc2ccccc2C12CCCc1ccccc12", "note": "(centres undefined)", "IC50": 1500}
{"smiles": "CN1Cc2ccccc2C12CCCc1sccc12.O=C(O)C(=O)O", "note": "(centres undefined)", "IC50": 490}
{"smiles": "CN1Cc2ccccc2C12CCc1ccccc12", "note": "(centres undefined)", "IC50": 65}
{"smiles": "COc1ccc2c(c1)C1(CCCc3ccccc31)NC2", "note": "(centres undefined)", "IC50": 4000}
{"smiles": "c1ccc2c(c1)CNC21CCCc2sccc21", "note": "(centres undefined)", "IC50": 600}
{"smiles": "COc1ccc2c(c1)C1(CCCCc3ccccc31)NC2", "note": "(centres undefined)", "IC50": 4800}
{"smiles": "CCCN1Cc2ccccc2C12CCCCc1ccccc12", "note": "(centres undefined)", "IC50": 17000}
{"smiles": "CN1Cc2ccc(O)cc2C12CCCc1ccccc12", "note": "(centres undefined)", "IC50": 200}
{"smiles": "CN1Cc2ccccc2C12CCCCc1ccccc12", "note": "(centres undefined)", "IC50": 1700}
{"smiles": "Oc1cccc2c1CCC21NCc2ccccc21", "note": "(centres undefined)", "IC50": 730}
{"smiles": "c1ccc2c(c1)CCCC21NCc2ccccc21", "note": "(centres undefined)", "IC50": 890}
{"smiles": "c1ccc2c(c1)CCC21NCc2ccccc21", "note": "(centres undefined)", "IC50": 980}
{"smiles": "COc1ccc2c(c1)C1(CCCc3ccccc31)N(C)C2", "note": "(centres undefined)", "IC50": 790}
{"smiles": "CN1Cc2ccc(O)cc2C12CCCCc1ccccc12", "note": "(centres undefined)", "IC50": 160}
{"smiles": "CCCN1Cc2ccccc2C12CCCc1sccc12", "note": "(centres undefined)", "IC50": 1500}
{"smiles": "CCCN1Cc2ccc(OC)cc2C12CCCCc1ccccc12", "note": "(centres undefined)", "IC50": 17000}
{"smiles": "c1ccc2c(c1)CCCCC21NCc2ccccc21", "note": "(centres undefined)", "IC50": 1700}
{"system": "Gerbillinae", "experiment": "Tested for the percent reduction in CA1 damage of the hippocampus (gerbil ischemia-induced cell death) after 60 mg/kg intraperitoneal administration,45 min pre and 5 min post ischemia event", "format": "functional", "conditions": "not given", "units": {"Reduction": "%"}}
{"smiles": "CN1Cc2ccccc2C12CCCc1sccc12.O=C(O)C(=O)O", "note": "(centres undefined)", "Reduction": 84}
{"system": "Mus musculus", "experiment": "Compound was tested at a dose of 20-40mg/Kg, ip; produced effects such as body rolling, ataxia and hyperlocomotion", "format": "functional, organism-based", "conditions": "not given"}
{"smiles": "c1ccc2c(c1)CCC21NCc2ccccc21", "note": "(centres undefined)", "Activity": "Active"}
{"system": "Rattus norvegicus", "experiment": "Tested […] for the NMDA-induced cytotoxicity at a concentration of 100 uM in rat cortical cell cultures", "format": "functional", "conditions": "not given", "units": {"Protection": "%"}}
{"smiles": "CN1Cc2ccccc2C12CCCc1sccc12.O=C(O)C(=O)O", "note": "(centres undefined)", "Protection": 68}
{"system": "Mus musculus", "experiment": "Tested in vivo for the antagonistic activity after 0.4 ug/mouse of NMDA intracerebral administration in mice", "format": "functional", "conditions": "central", "units": {"ED50": "mg/kg"}}
{"smiles": "CN1Cc2ccccc2C12CCCc1sccc12.O=C(O)C(=O)O", "note": "(centres undefined)", "ED50": 32}
{"system": "Gerbillinae", "experiment": "Tested for the percent protection from CA1 damage of the hippocampus (gerbil ischemia-induced cell death) after 1 mg/kg intraperitoneal administration, 45 min pre and 5 min post ischemia event", "format": "functional", "conditions": "not given", "units": {"Protection": "%"}}
{"smiles": "C[C@]12N[C@H](Cc3ccccc31)c1ccccc12.Cl", "note": "[DIZOCILPINE HYDROCHLORIDE]", "Protection": 42}
